Assays:
Format in all cases: in vivo
[1] = system: Beet Armyworm (Spodoptera exigua, LAPHEG); test: Bioassay on Beet Armyworm (BAW), 128-well diet tray assay; conditions: 168 h, 50 μg/cm^2 on artificial diet, second instar larvae, 25° C., five to seven days, average of eight wells, read-out: BAW rating, % Control (or Mortality)
Description: (§1) Certain molecules disclosed in this document were tested against BAW and CL using procedures described in the following examples. In the reporting of the results, the “BAW & CL Rating Table” was used (See Table Section).
Bioassays on BAW were conducted using a 128-well diet tray assay. One to five second instar BAW larvae were placed in each well (3 mL) of the diet tray that had been previously filled with 1 mL of artificial diet to which 50 μg/cm^2 of the test molecule (dissolved in 50 μL of 90:10 acetone-water mixture) had been applied (to each of eight wells) and then allowed to dry. Trays were covered with a clear self-adhesive cover, vented to allow gas exchange, and held at 25° C., 14:10 light-dark for five to seven days. Percent mortality was recorded for the larvae in each well; activity in the eight wells was then averaged. The results are indicated in the table entitled “Table ABC: Biological Results” (See Table Section).

[2] = system: Cabbage Looper (Trichoplusia ni, TRIPNI); test: Bioassay on Cabbage Looper (CL), 128-well diet tray assay; conditions: 168 h, 50 μg/cm^2 on artificial diet, second instar larvae, 25° C., five to seven days, average of eight wells, read-out: CL rating, % Control (or Mortality)
Description: as §1
Bioassays on CL were conducted using a 128-well diet tray assay. One to five second instar CL larvae were placed in each well (3 mL) of the diet tray that had been previously filled with 1 mL of artificial diet to which 50 μg/cm^2 of the test molecule (dissolved in 50 μL of 90:10 acetone-water mixture) had been applied (to each of eight wells) and then allowed to dry. Trays were covered with a clear self-adhesive cover, vented to allow gas exchange, and held at 25° C., 14:10 light-dark for five to seven days. Percent mortality was recorded for the larvae in each well; activity in the eight wells was then averaged. The results are indicated in the table entitled “Table ABC: Biological Results” (See Table Section).

[3] = system: Yellow Fever Mosquito (Aedes aegypti, AEDSAE); test: Bioassay on Yellow Fever Mosquito (YFM) larvae, 96-well plate; conditions: 4000 ppm DMSO master solution diluted, about 1 day-old larvae, room temperature, scored after 3 days
Description: Certain molecules disclosed in this document were tested against YFM using procedures described in the following paragraph. In the reporting of the results, the “YFM Rating Table” was used (See Table Section).
Master plates containing 400 μg of a molecule dissolved in 100 μL of dimethyl sulfoxide (DMSO) (equivalent to a 4000 ppm solution) are used. A master plate of assembled molecules contains 15 μL per well. To this plate, 135 μL of a 90:10 water/acetone mixture is added to each well. A robot (Biomek® NXP Laboratory Automation Workstation) is programmed to dispense 15 μL aspirations from the master plate into an empty 96-well shallow plate (“daughter” plate). There are 6 reps (“daughter” plates) created per master. The created “daughter” plates are then immediately infested with YFM larvae.
The day before plates are to be treated, mosquito eggs are placed in Millipore water containing liver powder to begin hatching (4 g into 400 mL). After the “daughter” plates are created using the robot, they are infested with 220 μL of the liver powder/larval mosquito mixture (about 1 day-old larvae). After plates are infested with mosquito larvae, a non-evaporative lid is used to cover the plate to reduce drying. Plates are held at room temperature for 3 days prior to grading. After 3 days, each well is observed and scored based on mortality. The results are indicated in the table entitled “Table ABC: Biological Results” (See Table Section).

Row | Structure (SMILES) | mortality at 50 µg/cm2 [1] [%] | mortality at 50 µg/cm2 [2] [%] | YFM rating, % Control (or Mortality) [3]
1 | COc1cccc(N2CCN/C2=N\C(=O)Nc2ccc(-c3ncn(-c4ccc(OC(F)(F)F)cc4)n3)cc2)c1 [F20, (E)-1-(1-(3-Methoxyphenyl)imidazolidin-2-ylidene)-3-(4-(1-(4-(trifluoromethoxy)phenyl)-1H-1,2,4-triazol-3-yl)phenyl)urea] | 50 to 100 | 50 to 100 | A (80-100)
2 | COc1ccc(N2CCN/C2=N\C(=O)Nc2ccc(-c3ncn(-c4ccc(OC(F)(F)F)cc4)n3)cc2)cc1 [F21, (E)-1-(1-(4-Methoxyphenyl)imidazolidin-2-ylidene)-3-(4-(1-(4-(trifluoromethoxy)phenyl)-1H-1,2,4-triazol-3-yl)phenyl)urea] | 50 to 100 | 50 to 100 | A (80-100)
